Reference: the NIST ThermoML archive (doi:10.1021/je050039p)
Numbers after ± are expanded uncertainties.

Conditions: Crystal 1; visual observation

| SMILES | Normal melting temperature [°C] |
| --- | --- |
| c1ccccc1 [benzene] | 5.90 ± 0.5 |
| CCCCCCCCCCCCC [tridecane] | -4.14 ± 0.5 |
